Measured values: ChEMBL document CHEMBL1201862, “PubChem BioAssay data set” (2004)
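Each compound was tested at five concentrations against cells in 96-well plates for 48 hours. The concentration for 50% growth inhibition is given as GI50.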 The source made the active and inactive calls. No stated cut-off is given here; in the data, active = GI50 up to about 1.1 µM and inactive = higher.

Columns and labels:
Assay in all cases: NCI-60 cell line screen, 48 h
OVCAR-5 = test system: OVCAR-5
SF-539 = test system: SF-539
SK-MEL-28 = test system: SK-MEL-28
UACC-257 = test system: UACC-257
SNB-19 = test system: SNB-19
EKVX = test system: EKVX
TK-10 = test system: TK-10
OVCAR-8 = test system: OVCAR-8
HOP-62 = test system: HOP-62
OVCAR-3 = test system: OVCAR-3
A498 = test system: A498
RPMI-8226 = test system: RPMI-8226
LOX IMVI = test system: LOX IMVI
ACHN = test system: ACHN
786-0 = test system: 786-0

Measured: GI50

COc1ccc(S(=O)(=O)c2ccccc2[N+](=O)[O-])cc1
inactive: OVCAR-5 > 100 µM | SF-539 > 100 µM | SK-MEL-28 53.5 µM | UACC-257 71.8 µM | SNB-19 > 100 µM | EKVX > 100 µM | TK-10 > 100 µM | OVCAR-8 > 100 µM | HOP-62 > 100 µM | OVCAR-3 98.6 µM | A498 > 100 µM | RPMI-8226 > 100 µM | LOX IMVI 91.4 µM

O=C(NN1C(=O)CSC1c1ccc(Cl)c(Cl)c1)c1ccncc1 (configuration not stated)
inactive: OVCAR-5 > 100 µM | SF-539 > 100 µM | SK-MEL-28 > 100 µM | UACC-257 54.2 µM | SNB-19 > 100 µM | EKVX > 100 µM | TK-10 57.7 µM | OVCAR-8 86.7 µM | ACHN 38.4 µM | A498 29.9 µM | RPMI-8226 42.9 µM | LOX IMVI 66.4 µM

Cc1ccc(Oc2ccc(C)cc2[N+](=O)[O-])cc1
inactive: OVCAR-5 38.2 µM | SF-539 > 100 µM | SK-MEL-28 65.6 µM | UACC-257 62.5 µM | EKVX 48.3 µM | TK-10 > 100 µM | OVCAR-8 > 100 µM | HOP-62 > 100 µM | ACHN 69.2 µM | OVCAR-3 55.8 µM | A498 > 100 µM | RPMI-8226 57.8 µM | LOX IMVI 40.1 µM

Cc1ccc(/C=C/C(=O)c2ccc([N+](=O)[O-])cc2)cc1
active: A498 0.815 µM
inactive: OVCAR-5 > 100 µM | SF-539 > 100 µM | SK-MEL-28 > 100 µM | UACC-257 > 100 µM | SNB-19 > 100 µM | 786-0 > 100 µM | EKVX > 100 µM | TK-10 > 100 µM | OVCAR-8 > 100 µM | HOP-62 > 100 µM | ACHN > 100 µM | OVCAR-3 > 100 µM | LOX IMVI > 100 µM

[O-]c1on[n+]2c1c(Nc1ccc(Cl)cc1)nc1ccccc12
inactive: OVCAR-5 > 100 µM | SF-539 > 100 µM | SK-MEL-28 > 100 µM | UACC-257 > 100 µM | SNB-19 > 100 µM | 786-0 > 100 µM | EKVX > 100 µM | TK-10 > 100 µM | OVCAR-8 > 100 µM | ACHN > 100 µM | OVCAR-3 > 100 µM | A498 > 100 µM | RPMI-8226 > 100 µM | LOX IMVI > 100 µM

CN1C(=N\S(=O)(=O)c2ccc(Cl)cc2)/C(=N/N=P(c2ccccc2)(c2ccccc2)c2ccccc2)c2ccccc21
inactive: OVCAR-5 > 100 µM | SF-539 > 100 µM | SK-MEL-28 > 100 µM | UACC-257 > 100 µM | SNB-19 > 100 µM | EKVX > 100 µM | TK-10 > 100 µM | OVCAR-8 > 100 µM | ACHN > 100 µM | OVCAR-3 > 100 µM | A498 > 100 µM

CC(=O)N[C@@H]1C(O)CN2C(=O)C(=O)O[C@H](C(O)CO)[C@@H]12 (some centres not stated)
inactive: OVCAR-5 > 100 µM | SF-539 > 100 µM | SK-MEL-28 > 100 µM | UACC-257 > 100 µM | SNB-19 > 100 µM | 786-0 > 100 µM | EKVX > 100 µM | TK-10 > 100 µM | OVCAR-8 > 100 µM | HOP-62 > 100 µM | ACHN > 100 µM | OVCAR-3 > 100 µM | A498 > 100 µM | RPMI-8226 > 100 µM | LOX IMVI > 100 µM

Cc1ccc2c(c1)C1C(CO2)C(c2ccccc2)=NN1c1ccccc1 (configuration not stated)
inactive: OVCAR-5 > 100 µM | SF-539 > 100 µM | SK-MEL-28 > 100 µM | UACC-257 > 100 µM | SNB-19 > 100 µM | 786-0 > 100 µM | EKVX > 100 µM | TK-10 > 100 µM | OVCAR-8 > 100 µM | HOP-62 > 100 µM | ACHN > 100 µM | OVCAR-3 > 100 µM | A498 > 100 µM | RPMI-8226 45.7 µM | LOX IMVI > 100 µM

CCOC(=O)Nc1ccc(S(=O)(=O)OC)cc1.CCOC(=O)Nc1ccc(S(=O)(=O)OC)cc1.NC(=O)NCCO
inactive: OVCAR-5 > 50 µM | SF-539 21.2 µM | SK-MEL-28 > 50 µM | UACC-257 29.6 µM | SNB-19 > 50 µM | 786-0 19.9 µM | EKVX > 50 µM | TK-10 48 µM | OVCAR-8 42.3 µM | HOP-62 23.6 µM | ACHN > 50 µM | OVCAR-3 > 50 µM | A498 > 50 µM | RPMI-8226 17.1 µM | LOX IMVI 21.3 µM

COC(=O)Cc1cc(=O)n2c([nH]c3ccccc32)c1C#N
inactive: OVCAR-5 > 100 µM | SF-539 > 100 µM | SK-MEL-28 > 100 µM | UACC-257 > 100 µM | SNB-19 > 100 µM | 786-0 > 100 µM | EKVX > 100 µM | TK-10 > 100 µM | OVCAR-8 > 100 µM | HOP-62 > 100 µM | ACHN 63.1 µM | OVCAR-3 > 100 µM | A498 > 100 µM | RPMI-8226 56.4 µM | LOX IMVI > 100 µM

C/C=C1/C(=Cc2[nH]c(C=c3[nH]/c(=C/C4=NC(=O)C(CC)=C4C)c(C)c3CCC(=O)O)c(CCC(=O)O)c2C)NC(=O)C1C (configuration not stated)
active: LOX IMVI 1.04 µM
inactive: OVCAR-5 8.49 µM | SF-539 6.4 µM | SK-MEL-28 47.6 µM | UACC-257 11 µM | SNB-19 > 50 µM | 786-0 2.41 µM | EKVX 30.6 µM | TK-10 > 50 µM | OVCAR-8 4.13 µM | HOP-62 2.33 µM | ACHN 13.7 µM | OVCAR-3 27.5 µM

Cc1cc(Cl)ccc1NC(=O)CCCC(=O)C(C(=O)c1ccccc1)c1ccccc1 (configuration not stated)
inactive: OVCAR-5 > 100 µM | UACC-257 > 100 µM | 786-0 > 100 µM | HOP-62 93.5 µM | ACHN > 100 µM | OVCAR-3 > 100 µM | A498 > 100 µM | RPMI-8226 > 100 µM | LOX IMVI > 100 µM

COC1(OC)CCC2(C)OC(c3ccccc3)C1O2 (configuration not stated)
inactive: OVCAR-5 > 100 µM | SF-539 > 100 µM | SK-MEL-28 > 100 µM | UACC-257 > 100 µM | SNB-19 > 100 µM | 786-0 > 100 µM | EKVX > 100 µM | TK-10 > 100 µM | OVCAR-8 > 100 µM | HOP-62 > 100 µM | ACHN > 100 µM | OVCAR-3 > 100 µM | RPMI-8226 > 100 µM | LOX IMVI > 100 µM

COC(=O)C1CC2(c3ccccc3)C(=O)c3ccccc3N2O1 (configuration not stated)
inactive: OVCAR-5 > 100 µM | SF-539 67 µM | SK-MEL-28 91.8 µM | UACC-257 > 100 µM | SNB-19 > 100 µM | 786-0 35.4 µM | EKVX > 100 µM | TK-10 > 100 µM | OVCAR-8 41.9 µM | HOP-62 71.3 µM | ACHN 49.2 µM | OVCAR-3 70.6 µM | A498 > 100 µM | RPMI-8226 17.7 µM | LOX IMVI 26.1 µM

c1c(N2CCOCC2)s[s+]c1N1CCOCC1
inactive: OVCAR-5 > 100 µM | SF-539 > 100 µM | SK-MEL-28 > 100 µM | UACC-257 > 100 µM | SNB-19 > 100 µM | 786-0 > 100 µM | EKVX > 100 µM | TK-10 76.6 µM | OVCAR-8 > 100 µM | HOP-62 > 100 µM | ACHN > 100 µM | A498 > 100 µM | RPMI-8226 > 100 µM | LOX IMVI > 100 µM

CC1(C)OC(C(N)=O)=C(C(N)=O)O1
inactive: OVCAR-5 > 100 µM | SF-539 > 100 µM | SK-MEL-28 > 100 µM | UACC-257 > 100 µM | SNB-19 > 100 µM | 786-0 > 100 µM | EKVX > 100 µM | TK-10 > 100 µM | OVCAR-8 > 100 µM | HOP-62 > 100 µM | ACHN > 100 µM | OVCAR-3 > 100 µM | A498 > 100 µM | LOX IMVI > 100 µM

COc1ccc(C(=O)C(C(=O)C(=O)NCCCNC(=O)C(=O)C(C(=O)c2ccc(OC)cc2)c2ccc(OC)cc2)c2ccc(OC)cc2)cc1 (configuration not stated)
inactive: OVCAR-5 > 100 µM | SF-539 > 100 µM | SK-MEL-28 > 100 µM | UACC-257 > 100 µM | SNB-19 > 100 µM | 786-0 > 100 µM | EKVX > 100 µM | TK-10 > 100 µM | OVCAR-8 > 100 µM | HOP-62 > 100 µM | OVCAR-3 > 100 µM | RPMI-8226 > 100 µM | LOX IMVI > 100 µM

O=P(c1ccccc1)(c1ccccc1)C1CC=C(c2ccccc2)C2(CCCC2)C1 (configuration not stated)
inactive: OVCAR-5 29.7 µM | SF-539 > 100 µM | SK-MEL-28 40.1 µM | UACC-257 43.7 µM | SNB-19 48.6 µM | 786-0 98.9 µM | EKVX > 100 µM | TK-10 72.3 µM | OVCAR-8 83.4 µM | OVCAR-3 49.1 µM | A498 74.8 µM | RPMI-8226 20.5 µM | LOX IMVI 31.3 µM

COC(=O)[C@]1(C)CCCC2(C)C1CC[C@H]1C=C(C)[C@H]3CCC12C3 (some centres not stated)
inactive: OVCAR-5 > 100 µM | SF-539 > 100 µM | SK-MEL-28 > 100 µM | UACC-257 37.5 µM | SNB-19 > 100 µM | 786-0 > 100 µM | TK-10 > 100 µM | OVCAR-8 > 100 µM | HOP-62 > 100 µM | ACHN > 100 µM | OVCAR-3 > 100 µM | RPMI-8226 > 100 µM | LOX IMVI 68.2 µM

O=C1c2cccc3c2C(=O)c2c(cccc21)OCCOCCOCCOCCO3
inactive: OVCAR-5 > 100 µM | SF-539 > 100 µM | UACC-257 > 100 µM | SNB-19 > 100 µM | EKVX > 100 µM | TK-10 > 100 µM | OVCAR-8 > 100 µM | HOP-62 > 100 µM | ACHN 78.5 µM | OVCAR-3 > 100 µM | RPMI-8226 55.2 µM | LOX IMVI 78.2 µM
